We go through 21 compounds from patent publication US20250041310A1, “Combination Therapy Comprising A2A/A2B and PD-1/PD-L1 Inhibitors” (Incyte Corporation, priority 2020, published 2025).

Assay [1] concerns the target Adenosine A2A Receptor (Homo sapiens (Human), UniProt P29274). Briefly: A2A Tag-lite HTRF Assay. As to conditions: Tag-lite A2A labeled cells, fluorescent ligand 12.5 nM; read-out: A2A_Ki. The format is binding. (TR-FRET usually uses a lanthanide donor and a delayed reading to cut background.)
Experimental: Test compounds were first serially diluted in DMSO and 100 nl added to the plate wells before the addition of other reaction components. The final concentration of DMSO was 1%. Tag-lite® Adenosine A2A labeled cells (CisBio C1TT1A2A) were diluted 1:5 into Tag-lite buffer (CisBio LABMED) and spun 1200 g for 5 mins.
Assay [2] concerns the target human adenosine A2B receptor (Homo sapiens (Human), UniProt P29275). In words: Adenosine A2B Receptor cyclic AMP GS Assay. It counts as cell-based. Here is the method:
Stably transfected HEK-293 cells expressing the human adenosine A2B receptor (Perkin Elmer) were maintained in MEM culture medium with 10% FBS and 100 μg/ml Geneticin (Life Technologies). 18 to 24 hours prior to assay, geneticin was removed from culture. The cisbio cAMP-GS Dynamic kit utilizing the FRET (Fluorescence Resonance Energy Transfer) technology was used to measure cAMP accumulation in the cells. Compounds of the present disclosure at an appropriate concentration were mixed with 10000 cells/well in white 96 well half area plates (Perkin Elmer) for 30 min at RT gently shaking. […] Detection reagents, d2-labeled cAMP (acceptor) and anti-cAMP cryptate (donor) were added to each well for 60 min at RT gently shaking.

Assay [3] has as its system PBMC from healthy donors stimulated by CD3 antibody. In words: In vitro Mixed Lineage Reaction assay (MLR). It counts as cell-based. Here is the method: On day 0, 10,000 PBMCs from a healthy donor was co-cultured with 10,000 γ-radiated PBMCs from another healthy donor. […] Cells were incubated at 37° C. for 4 days. IFN-γ in the supernatant of each well was measured by a HTRF kit (Cisbio, 62[…]) and the fluorescent signal was detected on a Pherastar FS plate reader (BMG Labtech) on day 4.

Setting [4] is: HEK-293 cells, agonist NECA 12 nM, read-out: A2B_cAMP_EC50.

Where two headings read alike, the source gives them in different places. A value given as a limit tells only on which side of the number the result lay.

Sequence of Adenosine A2A Receptor (P29274 whole entry): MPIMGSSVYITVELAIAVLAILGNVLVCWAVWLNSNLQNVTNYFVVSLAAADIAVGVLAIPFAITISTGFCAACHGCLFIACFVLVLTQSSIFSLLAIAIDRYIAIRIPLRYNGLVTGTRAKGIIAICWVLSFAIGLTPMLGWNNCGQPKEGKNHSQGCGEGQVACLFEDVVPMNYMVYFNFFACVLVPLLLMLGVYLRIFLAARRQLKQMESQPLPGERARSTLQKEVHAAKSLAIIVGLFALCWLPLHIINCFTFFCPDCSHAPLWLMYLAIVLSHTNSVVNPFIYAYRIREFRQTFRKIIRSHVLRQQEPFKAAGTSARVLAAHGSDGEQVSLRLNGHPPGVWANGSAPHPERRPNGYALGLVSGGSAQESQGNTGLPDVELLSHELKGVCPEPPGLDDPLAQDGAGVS
Sequence of human adenosine A2B receptor (P29275 whole entry): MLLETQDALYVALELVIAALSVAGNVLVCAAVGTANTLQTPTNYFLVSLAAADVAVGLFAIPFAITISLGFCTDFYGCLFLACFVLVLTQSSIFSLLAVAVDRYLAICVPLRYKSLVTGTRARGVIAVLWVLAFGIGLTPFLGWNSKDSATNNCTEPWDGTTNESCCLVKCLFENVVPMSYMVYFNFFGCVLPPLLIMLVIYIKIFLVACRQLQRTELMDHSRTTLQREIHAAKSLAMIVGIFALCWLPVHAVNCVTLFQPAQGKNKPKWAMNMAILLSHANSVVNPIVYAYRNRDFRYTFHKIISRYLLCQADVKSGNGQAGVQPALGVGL

Take `CCCCCn1c2cc(-c3cnn(Cc4cnc5ccsc5c4)c3)[nH]c2c(=O)n2c(C)nnc12` [Compound 19, 3-Methyl-9-pentyl-7-(1-(thieno[3,2-b]pyridin-6-ylmethyl)-1H-pyrazol-4-yl)-6,9-dihydro-5H-pyrrolo[3,2-d][1,2,4]triazolo[4,3-a]pyrimidin-5-one]: the Ki in assay [1] was under 10 nM.
With `N#Cc1cccc(-c2nc(N)c3nn(Cc4ncccc4F)nc3c2-c2ccncc2)c1` [Compound 15, 3-(4-amino-2-((3-fluoropyridin-2-yl)methyl)-7-(pyridin-4-yl)-2H-[1,2,3]triazolo[4,5-c]pyridin-6-yl)benzonitrile], the Ki in assay [1] is under 10 nM. In addition, in assay [2] (setting [4]), the EC50 is under 10 nM.
Consider `Cc1cc(-c2c(-c3cccc(C#N)c3)nc(N)c3nc(C(O)c4c(F)cccc4F)nn23)cc(C)n1` (single isomer, unassigned) [Compound 12, 3-(8-amino-2-((2,6-difluorophenyl)(hydroxy)methyl)-5-(2,6-dimethylpyridin-4-yl)-[1,2,4]triazolo[1,5-a]pyrazin-6-yl)benzonitrile], for which the Ki in assay [1] was under 10 nM. The compound further registered an EC50 in assay [2] of 10 to 100 nM.
For `N#Cc1cccc(-c2nc(N)n3nc(C(O)c4c(F)cccc4F)nc3c2-c2ccncn2)c1` (stereo not shown) [Compound 2, 3-(5-Amino-2-((2,6-difluorophenyl)(hydroxy)methyl)-8-(pyrimidin-4-yl)-[1,2,4]triazolo[1,5-c]pyrimidin-7-yl)benzonitrile], the Ki in assay [1] was under 10 nM. In addition, the EC50 in assay [2] (setting [4]) is under 10 nM.
Regarding `CCCCCn1c2cc(-c3cnn(Cc4ccc5c(c4)CCN(C(=O)CN(C)C)C5)c3)[nH]c2c(=O)n2c(C)nnc12` [Compound 20, 7-(1-((2-(2-(Dimethylamino)acetyl)-1,2,3,4-tetrahydroisoquinolin-6-yl)methyl)-1H-pyrazol-4-yl)-3-methyl-9-pentyl-6,9-dihydro-5H-pyrrolo[3,2-d][1,2,4]triazolo[4,3-a]pyrimidin-5-one], the Ki in assay [1] is under 10 nM.
With `N#Cc1cccc(-c2cc3nc(C(O)c4c(F)cccc4F)nn3c(N)n2)c1F` (stereo not shown) [Compound 6, 3-(5-Amino-2-((2,6-difluorophenyl)(hydroxy)methyl)-[1,2,4]triazolo[1,5-c]pyrimidin-7-yl)-2-fluorobenzonitrile], the Ki in assay [1] was under 10 nM.
On to `N#Cc1cccc(-c2nc(N)n3nc(C(O)c4c(F)cccc4F)nc3c2C#N)c1F` (stereo not shown) [Compound 7, 5-Amino-7-(3-cyano-2-fluorophenyl)-2-((2,6-difluorophenyl)(hydroxy)methyl)-[1,2,4]triazolo[1,5-c]pyrimidine-8-carbonitrile], for which the Ki in assay [1] is under 10 nM.
The same measure, in the same setting: to `CCCCCn1c2cc(-c3cnn(Cc4cncc(Cl)c4)c3)[nH]c2c(=O)n2c(C)nnc12` [Compound 17, 7-(1-((5-Chloropyridin-3-yl)methyl)-1H-pyrazol-4-yl)-3-methyl-9-pentyl-6,9-dihydro-5H-pyrrolo[3,2-d][1,2,4]triazolo[4,3-a]pyrimidin-5-one] belongs under 10 nM.
As for `N#Cc1cccc(-c2nc(N)c3nc(C(O)c4c(F)cccc4F)nn3c2-c2ccncn2)c1` (single isomer, unassigned) [Compound 10, 3-(8-Amino-2-((2,6-difluorophenyl)(hydroxy)methyl)-5-(pyrimidin-4-yl)-[1,2,4]triazolo[1,5-a]pyrazin-6-yl)benzonitrile], the Ki in assay [1] was under 10 nM. Moreover, the EC50 in assay [2] was under 10 nM.
Turning to `N#Cc1cccc(-c2nc(N)n3nc(Cn4nnc(-c5ccccn5)n4)nc3c2-c2ccncn2)c1` [Compound 3], the Ki in assay [1] was under 10 nM. Further, the EC50 in assay [2] (setting [4]) is under 10 nM.
For the compound `N#Cc1cccc(-c2cc3nc(C(O)c4ccccc4)nn3c(N)n2)c1` (stereo not shown) [Compound 5, 3-(5-Amino-2-(hydroxy(phenyl)methyl)-[1,2,4]triazolo[1,5-c]pyrimidin-7-yl)benzonitrile], the Ki in assay [1] was under 10 nM.
As for `N#Cc1cccc(-c2nc(N)n3nc(Cn4nnc(-n5cccn5)n4)nc3c2-c2ccncn2)c1` [Compound 21], the Ki in assay [1] was under 10 nM. Also, the EC50 in assay [2] (setting [4]) was under 10 nM.
For the compound `N#Cc1cccc(-c2nc(N)n3nc(Cn4nnc(-c5ccccn5)n4)nc3c2-c2ccncn2)c1` [Compound 3A, 3-(5-amino-2-((5-(pyridin-2-yl)-2H-tetrazol-2-yl)methyl)-8-(pyrimidin-4-yl)-[1,2,4]triazolo[1,5-c]pyrimidin-7-yl)benzonitrile], in assay [3] (PBMC stimulated with CD3 antibody, FIGS. 2A-2D), the “effect of combination with atezolizumab” value is given as “synergistic effect”. The IFNγ production result in assay [3] (combined with anti-PD-L1 antibody atezolizumab, 1 μM NECA, CD3 antibody, 4 days) is listed as “increase IFNγ production significantly”.
`Cc1ncoc1-c1c(-c2cccc(C#N)c2)nc(N)c2nc(C(N)c3c(F)cccc3F)nn12` (stereo not shown) [Compound 11, 3-(8-amino-2-(amino(2,6-difluorophenyl)methyl)-5-(4-methyloxazol-5-yl)-[1,2,4]triazolo[1,5-a]pyrazin-6-yl)benzonitrile]: the Ki in assay [1] was under 10 nM.
The same measure, in the same setting: to `CCCCCn1c2cc(-c3cnn(Cc4cncc(C)c4)c3)[nH]c2c(=O)n2c(C)nnc12` [Compound 18, 3-Methyl-7-(1-((5-methylpyridin-3-yl)methyl)-1H-pyrazol-4-yl)-9-pentyl-6,9-dihydro-5H-pyrrolo[3,2-d][1,2,4]triazolo[4,3-a]pyrimidin-5-one] belongs under 10 nM.
On the same count and under the same terms, for `Cc1cccnc1COc1nc2c(-c3ccncn3)c(-c3cccc(C#N)c3)nc(N)n2n1` [Compound 4, 3-(5-Amino-2-((3-methylpyridin-2-yl)methoxy)-8-(pyrimidin-4-yl)-[1,2,4]triazolo[1,5-c]pyrimidin-7-yl)benzonitrile] the value was under 10 nM.
On to `Cn1nccc1-c1c(-c2cccc(C#N)c2F)nc(N)c2nn(Cc3ccccn3)nc12` [Compound 16, 3-(4-amino-7-(1-methyl-1H-pyrazol-5-yl)-2-(pyridin-2-ylmethyl)-2H-[1,2,3]triazolo[4,5-c]pyridin-6-yl)-2-fluorobenzonitrile], for which the Ki in assay [1] is under 10 nM. For the same compound, in assay [2] (setting [4]), the EC50 is under 10 nM.
Turning to `N#Cc1cccc(-c2nc(N)n3nc(Cc4ccccn4)nc3c2-c2ccncn2)c1` [Compound 1, 3-(5-Amino-2-(pyridin-2-ylmethyl)-8-(pyrimidin-4-yl)-[1,2,4]triazolo[1,5-c]pyrimidin-7-yl)benzonitrile], the Ki in assay [1] is under 10 nM.
As for `N#Cc1cccc(-c2nc(N)c3nn(Cc4ncccc4F)nc3c2-c2ccncn2)c1` [Compound 14, 3-(4-amino-2-((3-fluoropyridin-2-yl)methyl)-7-(pyrimidin-4-yl)-2H-[1,2,3]triazolo[4,5-c]pyridin-6-yl)benzonitrile], the Ki in assay [1] was under 10 nM. Also, the EC50 in assay [2] (setting [4]) is under 10 nM.
In the case of `N#Cc1cccc(-c2nc(N)c3nn(Cc4ccccn4)nc3c2-c2ccncn2)c1` [Compound 13, 3-(4-amino-2-(pyridin-2-ylmethyl)-7-(pyrimidin-4-yl)-2H-[1,2,3]triazolo[4,5-c]pyridin-6-yl)benzonitrile], the Ki in assay [1] was under 10 nM. Also, in assay [2] (setting [4]), the EC50 was under 10 nM.
For `CN1CCC(NCc2cccc(F)c2C(O)c2nc3cc(-c4cccc(C#N)c4F)nc(N)n3n2)C1=O` (stereo not shown) [Compound 8, 3-(5-Amino-2-((2-fluoro-6-(((1-methyl-2-oxopyrrolidin-3-yl)amino)methyl)phenyl)(hydroxy)methyl)-[1,2,4]triazolo[1,5-c]pyrimidin-7-yl)-2-fluorobenzonitrile], in assay [1], the Ki is under 10 nM.
